{
  "source": "patent US10980794B2",
  "about": "“PRMT5 inhibitors and uses thereof” (Epizyme, Inc., priority 2012, dated 2021)",
  "key": {"Z-138 cell line": {"test_system": "Z-138 cell line", "test": "Z-138 Proliferation Assay (Cell Titer Glo, 5 days)", "format": "cell-based", "conditions": "Z-138 cells", "excerpt": "RPMI/Glutamax medium, penicillin-streptomycin, heat inactivated fetal bovine serum were purchased from Life Technologies, Grand Island, N.Y., USA. V-bottom polypropylene 384-well plates were purchased from Greiner Bio-One, Monroe, N.C., USA. Cell culture 384-well white opaque plates were purchased from Perkin Elmer, Waltham, Mass., USA. Cell-Titer Glo® was purchased from Promega Corporation, Madison, Wis., USA. SpectraMax M5 plate reader was purchased from Molecular Devices LLC, Sunnyvale, Calif., USA.\nA compound source plate was prepared by performing triplicate nine-point 3-fold serial dilutions in DMSO, beginning at 10 mM (final top concentration of compound in the assay was 20 μM and the DMSO was 0.2%). A 100 nL aliquot from the compound stock plate was added to its respective well in the cell plate. […] Luminescence was read in the SpectraMax M5 microplate reader. The concentration of compound inhibiting cell viability by 50% was determined using a 4-parametric fit of the normalized dose response curves."}, "[1]": {"test_system": "symmetric di-methyl arginine in Z-138 cells", "test": "Z-138 Methylation Assay (In Cell Western for symmetric di-methyl arginine and DNA content)", "format": "cell-based", "conditions": "read-out: ICW EC50", "excerpt": "[formula] [formula] Where top and bottom are the normally allowed to float, but may be fixed at 100 or 0 respectively in a 3-parameter fit. The Hill Coefficient normally allowed to float but may also be fixed at 1 in a 3-parameter fit. Y is the % inhibition and X is the compound concentration.\nRPMI/Glutamax medium, penicillin-streptomycin, heat inactivated fetal bovine serum, and D-PBS were purchased from Life Technologies, Grand Island, N.Y., USA. Odyssey blocking buffer, 800 CW goat anti-rabbit IgG (H+L) antibody, and Licor Odyssey infrared scanner were purchased from Licor Biosciences, Lincoln, Nebr., USA. Symmetric di-methyl arginine antibody was purchased from EMD Millipore, Billerica, Mass., USA. 16% Paraformaldehyde was purchased from Electron Microscopy Sciences, Hatfield, Pa., USA. […]\nFirst, the ratio for each well was determined by:\nEach plate included fourteen control wells of DMSO only treatment (minimum inhibition) as well as fourteen control wells for maximum inhibition treated with 3 μM of a reference compound (Background wells). The average of the ratio values for each control type was calculated and used to determine the percent inhibition for each test well in the plate. […] Percent inhibition was determined and IC50 curves were generated using triplicate wells per concentration of compound."}},
  "data": [
    {"compound": "CN(C[C@H](O)CN1CCc2ccccc2C1)C(=O)c1cc(NC2CCOCC2)ncn1", "note": "[Compound 232]", "values": [
      {"measurement": "EC50", "setting": "Z-138 cell line", "value": "1000 to 10000", "unit": "nM"},
      {"measurement": "EC50", "setting": "[1]", "value": "101 to 1000", "unit": "nM"}
    ]}
  ]
}
